Measurements as given in the NIST ThermoML archive (doi:10.1021/je060415l).
“And” between values parts separate entries of the source, which are not always exact repeats. Equal entries are not always repeated.

Experiment: isobaric coefficient of expansion
Conditions: Liquid, expansion method

CO [methanol]
Conditions | isobaric coefficient of expansion
196.17 K, 590 kPa | 0.00112 1/K
196.97 K, 80030 kPa | 0.000894 1/K
198.11 K, 590 kPa | 0.00112 1/K
199.3 K, 80030 kPa | 0.000894 1/K
200.13 K, 590 kPa | 0.00112 1/K
201.61 K, 80030 kPa | 0.000891 1/K
202.14 K, 590 kPa | 0.00112 1/K and 0.00113 1/K
203.94 K, 80030 kPa | 0.000891 1/K
204.09 K, 590 kPa | 0.00112 1/K
206.06 K, 590 kPa | 0.00112 1/K
206.3 K, 80030 kPa | 0.000888 1/K
208.02 K, 590 kPa | 0.00112 1/K
208.16 K, 20010 kPa | 0.00105 1/K
208.68 K, 80030 kPa | 0.000886 1/K
209.97 K, 590 kPa | 0.00112 1/K and 0.00114 1/K
210.16 K, 20010 kPa | 0.00104 1/K
210.17 K, 45100 kPa | 0.000966 1/K
211.07 K, 80030 kPa | 0.000883 1/K
211.93 K, 590 kPa | 0.00111 1/K and 0.00112 1/K
212.17 K, 20010 kPa | 0.00104 1/K
212.17 K, 45100 kPa | 0.000968 1/K
213.46 K, 80030 kPa | 0.00088 1/K
213.91 K, 590 kPa | 0.00112 1/K and 0.00111 1/K
214.17 K, 20010 kPa | 0.00104 1/K
214.17 K, 45100 kPa | 0.000963 1/K
215.9 K, 590 kPa | 0.00112 1/K
216 K, 80030 kPa | 0.000874 1/K
216.17 K, 20010 kPa | 0.00104 1/K
216.17 K, 45100 kPa | 0.000964 1/K
217.87 K, 590 kPa | 0.00112 1/K
218.17 K, 20010 kPa | 0.00104 1/K
218.18 K, 45100 kPa | 0.000965 1/K
218.19 K, 590 kPa | 0.00111 1/K
219.84 K, 590 kPa | 0.00112 1/K
220.16 K, 590 kPa | 0.00113 1/K
220.18 K, 20010 kPa | 0.00104 1/K
220.18 K, 45100 kPa | 0.000962 1/K
220.38 K, 80030 kPa | 0.000872 1/K
221.82 K, 590 kPa | 0.00111 1/K
222.14 K, 590 kPa | 0.00111 1/K
222.17 K, 20010 kPa | 0.00104 1/K
222.18 K, 45100 kPa | 0.000966 1/K
222.8 K, 80030 kPa | 0.000867 1/K
223.82 K, 590 kPa | 0.00112 1/K
224.15 K, 590 kPa | 0.00111 1/K
224.17 K, 20010 kPa | 0.00104 1/K
224.17 K, 45100 kPa | 0.00096 1/K
225.25 K, 80030 kPa | 0.000863 1/K
225.86 K, 590 kPa | 0.00111 1/K
226.15 K, 590 kPa | 0.00112 1/K
226.16 K, 45100 kPa | 0.000962 1/K
226.17 K, 20010 kPa | 0.00104 1/K
227.72 K, 80030 kPa | 0.000861 1/K
227.95 K, 590 kPa | 0.00112 1/K
228.15 K, 590 kPa | 0.00112 1/K
228.16 K, 20010 kPa | 0.00104 1/K
228.16 K, 45100 kPa | 0.000958 1/K
230.04 K, 590 kPa | 0.00111 1/K
230.16 K, 20010 kPa | 0.00105 1/K
230.17 K, 590 kPa | 0.00112 1/K
230.17 K, 45100 kPa | 0.000957 1/K
230.17 K, 80030 kPa | 0.00086 1/K
232.14 K, 590 kPa | 0.00112 1/K
232.17 K, 20010 kPa | 0.00104 1/K
232.17 K, 45100 kPa | 0.000959 1/K
232.18 K, 590 kPa | 0.00113 1/K
232.57 K, 80030 kPa | 0.000869 1/K
234.16 K, 590 kPa | 0.00113 1/K
234.17 K, 20010 kPa | 0.00103 1/K
234.17 K, 45100 kPa | 0.000956 1/K
234.19 K, 590 kPa | 0.00112 1/K
234.98 K, 80030 kPa | 0.000859 1/K
236.16 K, 590 kPa | 0.00112 1/K
236.17 K, 20010 kPa | 0.00104 1/K
236.17 K, 45100 kPa | 0.000953 1/K
236.18 K, 590 kPa | 0.00112 1/K
237.42 K, 80030 kPa | 0.00086 1/K
238.17 K, 590 kPa | 0.00112 1/K
238.17 K, 20010 kPa | 0.00103 1/K
238.17 K, 45100 kPa | 0.000949 1/K
239.85 K, 80030 kPa | 0.000855 1/K
240.17 K, 590 kPa | 0.00112 1/K
240.17 K, 45100 kPa | 0.000949 1/K
240.25 K, 20010 kPa | 0.00103 1/K
242.17 K, 590 kPa | 0.00112 1/K
242.17 K, 45100 kPa | 0.000942 1/K
242.25 K, 20010 kPa | 0.00103 1/K
242.29 K, 80030 kPa | 0.000853 1/K
244.18 K, 590 kPa | 0.00112 1/K
244.18 K, 45100 kPa | 0.000941 1/K
244.19 K, 20010 kPa | 0.00103 1/K
244.74 K, 80030 kPa | 0.000851 1/K
246.19 K, 590 kPa | 0.00112 1/K
246.19 K, 20010 kPa | 0.00104 1/K
247.21 K, 80030 kPa | 0.000847 1/K
248.17 K, 20010 kPa | 0.00104 1/K
